Test results reported in patent US9745335B2 (Blirt S.A., priority 2012, dated 2017).
Like-named read-outs stand apart in the source and are kept apart here. Blank lines part the entries; values can stand above or below the compound they belong to.

Columns and labels:
Assay type in all cases: cell-based
Human erythrocytes = assay: hemotoxicity determination (hemolytic activity)
Procedure: The hemotoxicity determination was carried out by the serial dilutions method, according to the procedure described earlier (Slisz, M., et al., E., J Antibiot 57: 669-678 (2004). Human erythrocytes were suspended in the solution of saline to obtain a cell density of suspension 2×10^7/ml. Suitable amounts of diluted solutions of compounds were added to the cell suspension in tubes and were incubated at 37° C. for 30 minutes and then centrifuged (1700×g, 10 min, 4° C.). The concentration of hemoglobin in supernatant after centrifugation of erythrocytes suspension were determined by measuring the absorbance at wavelength λ=540 nm (A540). The maximum level of hemolysis was obtained after incubation of cells suspension in the presence of 0.1% Tritone X-100 (control sample). […] From these graphs, the EH50 values were read which are the interpolated concentrations of compound, for which the A540 value is exactly 50% of the A540 value measured for the control sample.

Candida krusei DSM 6128 = assay: antifungal activity in vitro, serial dilution in RPMI 1640
Procedure: (§1) For the determination of antifungal activity in vitro we used method of serial dilution in buffered medium RPMI 1640, pH 7.0, in a 96-wells microplates, according to the standard procedure (National Committee for Clinical Laboratory Standards. Reference method for broth dilution antifungal susceptibility testing of yeast, approved standard, 2nd ed. M27-A2 vol. 22 Wayne, Pa., 2002). The optical density of cells suspension was measured using a microplates reader (Victor^3, Perkin-Elmer) at the wavelength λ=531 nm (A531). On the basis of obtained results the diagrams of relation between A531 values and concentration of examined compound were made.

[1] = test system: Candida glabrata DSM 11226; assay: as above
Procedure: as §1

[2] = test system: Candida albicans ATCC 10231; assay: as above
Procedure: as §1

[3] = test system: Candida tropicalis KKP 334; assay: as above
Procedure: as §1

[4] = test system: Candida lusitaniae DSM 70102; assay: as above
Procedure: as §1

[5] = test system: Saccharomyces cerevisiae ATCC 9763; assay: as above; conditions: RPMI 1640, pH 7.0; for Antifungal activity IC50: Saccharomyces cerevisiae ATCC 9763 (first head over MIC and IC50); for Antifungal activity MIC: Saccharomyces cerevisiae ATCC 9763
Procedure: as §1

[6] = human erythrocytes, 37° C., 30 minutes

SMILES: C[C@@H]1[C@H](O)[C@@H](C)/C=C/C=C/C=C/C=C/C=C/C=C/C=C/[C@H](O[C@@H]2O[C@H](C)[C@@H](O)[C@H](NCc3ccc(-c4ccccc4)cc3)[C@@H]2O)C[C@@H]2O[C@](O)(C[C@@H](O)C[C@@H](O)[C@H](O)CC[C@@H](O)C[C@@H](O)CC(=O)O[C@H]1C)C[C@H](O)[C@H]2C(=O)O [Compound A20, N-[(4-biphenyl)methyl]amphotericin B]
Hemotoxi EH50 (Human erythrocytes; [6]): >100 µg/mL
Antifungal activity MIC (Candida krusei DSM 6128): 4 µg/mL
Antifungal activity MIC [1]: 4 µg/mL
Antifungal activity MIC [2]: 4 µg/mL
Antifungal activity MIC [3]: 4 µg/mL
Antifungal activity MIC [4]: 4 µg/mL
Antifungal activity IC50 [5]: 1.63 µg/mL
Antifungal activity MIC [5]: 4 µg/mL

SMILES: C[C@@H]1[C@H](O)[C@@H](C)/C=C/C=C/C=C/C=C/C=C/C=C/C=C/[C@H](O[C@@H]2O[C@H](C)[C@@H](O)[C@H](NC(=O)C(N)Cc3ccccc3F)[C@@H]2O)C[C@@H]2O[C@](O)(C[C@@H](O)C[C@@H](O)[C@H](O)CC[C@@H](O)C[C@@H](O)CC(=O)O[C@H]1C)C[C@H](O)[C@H]2C(=O)O (stereo partly shown) [Compound A38, N-o-fluorophenylalanylamphotericin B]
Hemotoxi EH50 (Human erythrocytes; [6]): >100 µg/mL
Antifungal activity MIC (Candida krusei DSM 6128): 4 µg/mL
Antifungal activity MIC [1]: 4 µg/mL
Antifungal activity MIC [2]: 2 µg/mL
Antifungal activity MIC [3]: 4 µg/mL
Antifungal activity MIC [4]: 2 µg/mL
Antifungal activity IC50 [5]: 1.92 µg/mL
Antifungal activity MIC [5]: 4 µg/mL

SMILES: C[C@@H]1[C@H](O)[C@@H](C)/C=C/C=C/C=C/C=C/C=C/C=C/C=C/[C@H](O[C@@H]2O[C@H](C)[C@@H](O)[C@H](NC3CC(=O)N(Cc4ccccc4)C3=O)[C@@H]2O)C[C@@H]2O[C@](O)(C[C@@H](O)C[C@@H](O)[C@H](O)CC[C@@H](O)C[C@@H](O)CC(=O)O[C@H]1C)C[C@H](O)[C@H]2C(=O)O (stereo partly shown) [Compound A2, N—(N-benzylsuccinimidyl)amphotericin B]
Hemotoxi EH50 (Human erythrocytes): >100 µg/mL
Antifungal activity MIC (Candida krusei DSM 6128): 8 µg/mL
Antifungal activity MIC [1]: 8 µg/mL
Antifungal activity MIC [2]: 4 µg/mL
Antifungal activity MIC [3]: 4 µg/mL
Antifungal activity MIC [4]: 2 µg/mL
Antifungal activity IC50 [5]: 2.22 µg/mL
Antifungal activity MIC [5]: 4 µg/mL

SMILES: C[C@@H]1[C@H](O)[C@@H](C)/C=C/C=C/C=C/C=C/C=C/C=C/C=C/[C@H](O[C@@H]2O[C@H](C)[C@@H](O)[C@H](NC3CC(=O)N(c4ccc([N+](=O)[O-])cc4)C3=O)[C@@H]2O)C[C@@H]2O[C@](O)(C[C@@H](O)C[C@@H](O)[C@H](O)CC[C@@H](O)C[C@@H](O)CC(=O)O[C@H]1C)C[C@H](O)[C@H]2C(=O)O (stereo partly shown) [Compound A5, N—[N-(4-nitrophenyl)succinimidyl]amphotericin B]
Hemotoxi EH50 (Human erythrocytes): >100 µg/mL
Antifungal activity MIC (Candida krusei DSM 6128): 4 µg/mL
Antifungal activity MIC [1]: 4 µg/mL
Antifungal activity MIC [2]: 4 µg/mL
Antifungal activity MIC [3]: 4 µg/mL
Antifungal activity MIC [4]: 2 µg/mL
Antifungal activity IC50 [5]: 1.94 µg/mL
Antifungal activity MIC [5]: 4 µg/mL

SMILES: C[C@@H]1[C@H](O)[C@@H](C)/C=C/C=C/C=C/C=C/C=C/C=C/C=C/[C@H](O[C@@H]2O[C@H](C)[C@@H](O)[C@H](NC3CC(=O)N(c4ccc(Br)cc4)C3=O)[C@@H]2O)C[C@@H]2O[C@](O)(C[C@@H](O)C[C@@H](O)[C@H](O)CC[C@@H](O)C[C@@H](O)CC(=O)O[C@H]1C)C[C@H](O)[C@H]2C(=O)O (stereo partly shown) [Compound A3, N—[N-(4-bromophenyl)succinimidyl]amphotericin B]
Hemotoxi EH50 (Human erythrocytes): >100 µg/mL
Antifungal activity MIC (Candida krusei DSM 6128): 8 µg/mL
Antifungal activity MIC [1]: 8 µg/mL
Antifungal activity MIC [2]: 4 µg/mL
Antifungal activity MIC [3]: 4 µg/mL
Antifungal activity MIC [4]: 4 µg/mL
Antifungal activity IC50 [5]: 2.85 µg/mL
Antifungal activity MIC [5]: 4 µg/mL

SMILES: Cc1cc(C)c(N2C(=O)CC(N[C@@H]3[C@H](O)[C@H](O[C@H]4/C=C/C=C/C=C/C=C/C=C/C=C/C=C/[C@H](C)[C@@H](O)[C@@H](C)[C@H](C)OC(=O)C[C@H](O)C[C@H](O)CC[C@@H](O)[C@H](O)C[C@H](O)C[C@]5(O)C[C@H](O)[C@@H](C(=O)O)[C@H](C4)O5)O[C@H](C)[C@H]3O)C2=O)c(C)c1 (stereo partly shown) [Compound A1, N—[N-(2,4,6-trimethylphenyl)succinimidyl]amphotericin B]
Hemotoxi EH50 (Human erythrocytes): >100 µg/mL
Antifungal activity MIC (Candida krusei DSM 6128): 8 µg/mL
Antifungal activity MIC [1]: 8 µg/mL
Antifungal activity MIC [2]: 4 µg/mL
Antifungal activity MIC [3]: 4 µg/mL
Antifungal activity MIC [4]: 2 µg/mL
Antifungal activity IC50 [5]: 0.98 µg/mL
Antifungal activity MIC [5]: 2 µg/mL

SMILES: C[C@@H]1[C@H](O)[C@@H](C)/C=C/C=C/C=C/C=C/C=C/C=C/C=C/[C@H](O[C@@H]2O[C@H](C)[C@@H](O)[C@H](NC3CC(=O)N(c4ccccc4C(C)(C)C)C3=O)[C@@H]2O)C[C@@H]2O[C@](O)(C[C@@H](O)C[C@@H](O)[C@H](O)CC[C@@H](O)C[C@@H](O)CC(=O)O[C@H]1C)C[C@H](O)[C@H]2C(=O)O (stereo partly shown) [Compound A4, N—[N-(2-tert-butylophenyl)succinimidyl]amphotericin B]
Hemotoxi EH50 (Human erythrocytes): >100 µg/mL
Antifungal activity MIC (Candida krusei DSM 6128): 8 µg/mL
Antifungal activity MIC [1]: 8 µg/mL
Antifungal activity MIC [2]: 4 µg/mL
Antifungal activity MIC [3]: 4 µg/mL
Antifungal activity MIC [4]: 4 µg/mL
Antifungal activity IC50 [5]: 3.11 µg/mL
Antifungal activity MIC [5]: 4 µg/mL

Further lines, with some results ahead:

Antifungal activity MIC (Candida krusei DSM 6128): 8 µg/mL
Antifungal activity MIC [1]: 8 µg/mL
Antifungal activity MIC [2]: 4 µg/mL
Antifungal activity MIC [3]: 4 µg/mL
Antifungal activity MIC [4]: 4 µg/mL
Antifungal activity IC50 [5]: 2.56 µg/mL
Antifungal activity MIC [5]: 4 µg/mL
SMILES: C[C@@H]1[C@H](O)[C@@H](C)/C=C/C=C/C=C/C=C/C=C/C=C/C=C/[C@H](O[C@@H]2O[C@H](C)[C@@H](O)[C@H](NC(=S)NCc3ccncc3)[C@@H]2O)C[C@@H]2O[C@](O)(C[C@@H](O)C[C@@H](O)[C@H](O)CC[C@@H](O)C[C@@H](O)CC(=O)O[C@H]1C)C[C@H](O)[C@H]2C(=O)O [Compound A29, N-{[3-(pyridin-4-yl)methyl]thioureidyl}amphotericin B]
Hemotoxi EH50 (Human erythrocytes): >100 µg/mL

Antifungal activity MIC (Candida krusei DSM 6128): 8 µg/mL
Antifungal activity MIC [1]: 8 µg/mL
Antifungal activity MIC [2]: 4 µg/mL
Antifungal activity MIC [3]: 4 µg/mL
Antifungal activity MIC [4]: 4 µg/mL
Antifungal activity IC50 [5]: 2.55 µg/mL
Antifungal activity MIC [5]: 4 µg/mL
SMILES: C[C@@H]1[C@H](O)[C@@H](C)/C=C/C=C/C=C/C=C/C=C/C=C/C=C/[C@H](O[C@@H]2O[C@H](C)[C@@H](O)[C@H](NC(=S)Nc3cccnc3)[C@@H]2O)C[C@@H]2O[C@](O)(C[C@@H](O)C[C@@H](O)[C@H](O)CC[C@@H](O)C[C@@H](O)CC(=O)O[C@H]1C)C[C@H](O)[C@H]2C(=O)O [Compound A26, N-[3-(pyridin-3-yl)thioureidyl]amphotericin B]
Hemotoxi EH50 (Human erythrocytes): >100 µg/mL

Antifungal activity MIC (Candida krusei DSM 6128): 8 µg/mL
Antifungal activity MIC [1]: 8 µg/mL
Antifungal activity MIC [2]: 4 µg/mL
Antifungal activity MIC [3]: 4 µg/mL
Antifungal activity MIC [4]: 4 µg/mL
Antifungal activity IC50 [5]: 2.54 µg/mL
Antifungal activity MIC [5]: 4 µg/mL
SMILES: C[C@@H]1[C@H](O)[C@@H](C)/C=C/C=C/C=C/C=C/C=C/C=C/C=C/[C@H](O[C@@H]2O[C@H](C)[C@@H](O)[C@H](NC(=S)Nc3ccccc3)[C@@H]2O)C[C@@H]2O[C@](O)(C[C@@H](O)C[C@@H](O)[C@H](O)CC[C@@H](O)C[C@@H](O)CC(=O)O[C@H]1C)C[C@H](O)[C@H]2C(=O)O [Compound A23, N-[(3-phenyl)-thioureidyl]amphotericin B]
Hemotoxi EH50 (Human erythrocytes): >100 µg/mL

Antifungal activity MIC (Candida krusei DSM 6128): 4 µg/mL
Antifungal activity MIC [1]: 4 µg/mL
Antifungal activity MIC [2]: 2 µg/mL
Antifungal activity MIC [3]: 2 µg/mL
Antifungal activity MIC [4]: 1 µg/mL
Antifungal activity IC50 [5]: 1.28 µg/mL
Antifungal activity MIC [5]: 2 µg/mL
SMILES: C[C@@H]1[C@H](O)[C@@H](C)/C=C/C=C/C=C/C=C/C=C/C=C/C=C/[C@H](O[C@@H]2O[C@H](C)[C@@H](O)[C@H](NC(=O)[C@@H](N)CSC(C)(C)C)[C@@H]2O)C[C@@H]2O[C@](O)(C[C@@H](O)C[C@@H](O)[C@H](O)CC[C@@H](O)C[C@@H](O)CC(=O)O[C@H]1C)C[C@H](O)[C@H]2C(=O)O [Compound A37, N-L-(S-tert-butyl)cystylamphotericin B]
Hemotoxi EH50 (Human erythrocytes): >100 µg/mL
